Results on three compounds are retold here after patent US20160339099A1, “SYNERGISTIC COMBINATION OF ANALGESIC DRUGS” (priority 2013, published 2016).

Usually IC50 stands for the concentration at which inhibition is half-maximal.

The subject of assay [1] is inflammatory hyperalgesia in a murine thermal pain model. As to the kind of experiment: Complete Freund's Adjuvant thermal hyperalgesia, Hargreaves test (Example 2). The format is in vivo, mice. Conditions: intraplantar 1 microgram each; three days post CFA.
Procedure: Baseline thermal thresholds were recorded for each animal before 20 μl Complete Freund's Adjuvant (Sigma) was injected subcutaneously into the plantar aspect of a hind paw using a Hamilton syringe and 30 G needle. Three days post Complete Freund's Adjuvant injections thermal threshold were measured before to drug treatment.
(§6) Mice received 20 μl intraplantar injections of either; • 1 μg Phlotoxin-1, • 1 μg Buprenorphine, • combined 1 μg Phlotoxin-1 and 1 μg Buprenorphine • or vehicle.
The target of assay [2] is T1, Nav1.7 (Homo sapiens, UniProt Q15858). Conditions: Escoubas et al. 2006, Bosmans et al. 2005; cited from earlier work.
The target of assay [3] is T1, Nav1.7. As to the kind of experiment: Whole cell voltage clamp of Nav1.7 activity in transfected HEK293 cell line. In kind it is cell-based. The settings on record: 0.25 μM, HEK293 cell line transfected with human Nav1.7. The arrangement: expressed in transfected cells; host or cells: HEK293. How it is done:
Specifically, HEK293 (ATCC) cells are transfected with Nav1.7 or other sodium channel cDNA constructs in a vector co-expressing a fluorescent marker protein using lipofectamine 2000 or other transfection method and plated onto poly-d-lysine coated coverslips. All recordings are done 24-72 hours after transfection
Whole-cell voltage clamp recordings are performed using an Axopatch 200 B amplifier at room temperature using standard techniques. Extracellular solution comprised (mM) NaCl 145, KCl 4, CaCl2 1.8, MgCl2 1, HEPES 10, (pH 7.35 with NaOH); intracellular (mM) CsCl 150, EGTA 10, HEPES 10, (pH 7.35 with CsOH). […] Tau of inactivation was measured by fitting a standard exponential function to the decaying current and persistent current was determined by measuring the current 20 ms after the start of the voltage step and expressing it as a percentage of the transient current in the same step. To assess voltage dependence of activation current-voltage families were obtained and peak sodium currents measured at each voltage. Channel conductance was calculated using the formula GNa=I/(V−Vrev) where GNa is sodium conductance, I is peak current, V is the voltage step and Vrev is the measured reversal potential which was determined for each cell by fitting a straight line through the linear portion of the current-voltage relationship. […]

The subject of assay [4] is murine acute thermal pain model. As to the kind of experiment: Hargreaves test, murine acute thermal pain model, intraplantar drug treatment. Conditions: 1 μg of each drug, 20 μl intraplantar injection, compared with control mice.
Procedure: as §6
The next assay deals with Nav1.7 null mutant mice. Put plainly: Hargreaves test after naloxone in Nav1.7 null mutant mice. In kind it is in vivo. Conditions: 2 mg/kg naloxone intraperitoneal; Nav1.7 Advill tissue-specific null mutant mice. On the procedure:
The analgesia found in Nav1.7 null mutant mice was measured with the Hargreaves apparatus, which is a measure of acute thermal pain (Minett et al. 2011, Minett et al. 2012).
(§1) Thermal nociceptive thresholds were measured using the paw-withdrawal latency according to the method described by Hargreaves et al. (1988), with minor modifications (Minett et al. 2011). Briefly, mice were left to acclimatise within an IITC Hargreaves stand for at least 1 hour. Three withdrawal responses were measured per animal. The mice were then left to resettle for at least 30 minutes before the drug treatment.
(§2) Mice received intraperitoneal injections of either 2 mg/kg naloxone or the equivalent volume of vehicle.

A further assay deals with normal mice. As to the kind of experiment: Hargreaves test after naloxone in normal mice. In kind it is in vivo. Conditions: 2 mg/kg naloxone intraperitoneal. On the procedure:
as §1, §2

For assay [5], the system named is Nav1.7 loss of function pain-free. Put plainly: Human radiant heat detection thresholds (warmth, pinprick) under naloxone. In kind it is in vivo. Conditions: naloxone 6 mg bolus and 0.1 mg/minute infusion. How it is done: (§3) A Nav1.7 loss of function pain-free […] ([…]) was tested under baseline, saline, and naloxone (6 mg) bolus and 0.1 mg/minute infusion treatment. The forearm was stimulated with radiant heat (CO2 lasers).
Warmth threshold reflects activation of unmyelinated C-fibres, while pinprick threshold is mediated by small-myelinated A-delta fibres (LaMotte et al 1978). Detection thresholds were assessed by slowly increasing the temperature of the stimulus (rate 1 deg/sec), after a neutral baseline of variable length (5-10 seconds). The participant was asked to press a button, to stop the stimulus as soon it was detected as warm or pinprick. At baseline, ML perceived only 1 of the 6 stimulus ramps. All the stimuli were detected in the subsequent saline and naloxone sessions.

In assay [6] the test system is Nav1.7 null mutant human. As to the kind of experiment: Human processing of tonic radiant heat under naloxone (ratings, EEG). The format is in vivo. How it is done:
as §3
We delivered tonic stimuli, at the constant temperature of 42, 45, and 48° C. for 20 sec. ML rated online fluctuations in perceived intensity on a visual analog scale. Identical stimuli were rated higher after administration of naloxone in comparison to both the baseline and saline conditions.
Furthermore, we measured the electroencephalogram (EEG) responses induced by tonic radiant heat stimulation: in other words, we looked at the effect of the nociceptive stimulation on brain rhythms.
(§4) Tonic radiant heat was administered over 25 seconds, while the participants rated online the intensity of the heat on a visual analogue scale. The results are depicted in FIG. 11B.

In assay [7] the test system is Nav1.7 null mutant human. Put plainly: Human processing of phasic radiant heat (laser pulses) under naloxone. The format is in vivo. On the procedure: as §3
Laser pulses of the same energy (fluency 0.6 j/mm^2) were given to the forearm. The energy used typically evokes a sensation of sharp pinprick pain in healthy volunteers. […] However, naloxone enhanced the detection rate of laser pulses to 80%. ML felt 37.5% of the detected stimuli as pinprick, while the other sensations were described as a slow heat, or warmth. Ratings were low (mean 6.1, range 0.5-15) in a perceived intensity scale ranging from 0-100.
(§5) We evaluated the probability of detecting 9-ms radiant heat pulses in a Nav1.7 null mutant human patient and in three age-matched, healthy human controls. Radiant heat was used to selectively stimulate intra-epidermal free-nerve endings, without touch. The results are depicted in FIG. 11A.

Assay [8] relates to Nav1.7 loss of function pain-free. As to the kind of experiment: Tactile sensitivity under naloxone. The format is in vivo, human. The settings on record: baseline, saline and naloxone conditions.
Another assay deals with healthy human controls. Put plainly: Radiant heat stimuli under naloxone in healthy controls. The format is in vivo. The settings on record: healthy patients. On the procedure:
as §5, §4

In assay [9] the target is T1, Nav1.7. The settings on record: Yang et al. 2013; read-out: IC50 for inhibition of Nav1.7; cited from earlier work.
Where [10] appears, read: scale ranging from 0-100, naloxone.

T1 sequence (Q15858 whole entry): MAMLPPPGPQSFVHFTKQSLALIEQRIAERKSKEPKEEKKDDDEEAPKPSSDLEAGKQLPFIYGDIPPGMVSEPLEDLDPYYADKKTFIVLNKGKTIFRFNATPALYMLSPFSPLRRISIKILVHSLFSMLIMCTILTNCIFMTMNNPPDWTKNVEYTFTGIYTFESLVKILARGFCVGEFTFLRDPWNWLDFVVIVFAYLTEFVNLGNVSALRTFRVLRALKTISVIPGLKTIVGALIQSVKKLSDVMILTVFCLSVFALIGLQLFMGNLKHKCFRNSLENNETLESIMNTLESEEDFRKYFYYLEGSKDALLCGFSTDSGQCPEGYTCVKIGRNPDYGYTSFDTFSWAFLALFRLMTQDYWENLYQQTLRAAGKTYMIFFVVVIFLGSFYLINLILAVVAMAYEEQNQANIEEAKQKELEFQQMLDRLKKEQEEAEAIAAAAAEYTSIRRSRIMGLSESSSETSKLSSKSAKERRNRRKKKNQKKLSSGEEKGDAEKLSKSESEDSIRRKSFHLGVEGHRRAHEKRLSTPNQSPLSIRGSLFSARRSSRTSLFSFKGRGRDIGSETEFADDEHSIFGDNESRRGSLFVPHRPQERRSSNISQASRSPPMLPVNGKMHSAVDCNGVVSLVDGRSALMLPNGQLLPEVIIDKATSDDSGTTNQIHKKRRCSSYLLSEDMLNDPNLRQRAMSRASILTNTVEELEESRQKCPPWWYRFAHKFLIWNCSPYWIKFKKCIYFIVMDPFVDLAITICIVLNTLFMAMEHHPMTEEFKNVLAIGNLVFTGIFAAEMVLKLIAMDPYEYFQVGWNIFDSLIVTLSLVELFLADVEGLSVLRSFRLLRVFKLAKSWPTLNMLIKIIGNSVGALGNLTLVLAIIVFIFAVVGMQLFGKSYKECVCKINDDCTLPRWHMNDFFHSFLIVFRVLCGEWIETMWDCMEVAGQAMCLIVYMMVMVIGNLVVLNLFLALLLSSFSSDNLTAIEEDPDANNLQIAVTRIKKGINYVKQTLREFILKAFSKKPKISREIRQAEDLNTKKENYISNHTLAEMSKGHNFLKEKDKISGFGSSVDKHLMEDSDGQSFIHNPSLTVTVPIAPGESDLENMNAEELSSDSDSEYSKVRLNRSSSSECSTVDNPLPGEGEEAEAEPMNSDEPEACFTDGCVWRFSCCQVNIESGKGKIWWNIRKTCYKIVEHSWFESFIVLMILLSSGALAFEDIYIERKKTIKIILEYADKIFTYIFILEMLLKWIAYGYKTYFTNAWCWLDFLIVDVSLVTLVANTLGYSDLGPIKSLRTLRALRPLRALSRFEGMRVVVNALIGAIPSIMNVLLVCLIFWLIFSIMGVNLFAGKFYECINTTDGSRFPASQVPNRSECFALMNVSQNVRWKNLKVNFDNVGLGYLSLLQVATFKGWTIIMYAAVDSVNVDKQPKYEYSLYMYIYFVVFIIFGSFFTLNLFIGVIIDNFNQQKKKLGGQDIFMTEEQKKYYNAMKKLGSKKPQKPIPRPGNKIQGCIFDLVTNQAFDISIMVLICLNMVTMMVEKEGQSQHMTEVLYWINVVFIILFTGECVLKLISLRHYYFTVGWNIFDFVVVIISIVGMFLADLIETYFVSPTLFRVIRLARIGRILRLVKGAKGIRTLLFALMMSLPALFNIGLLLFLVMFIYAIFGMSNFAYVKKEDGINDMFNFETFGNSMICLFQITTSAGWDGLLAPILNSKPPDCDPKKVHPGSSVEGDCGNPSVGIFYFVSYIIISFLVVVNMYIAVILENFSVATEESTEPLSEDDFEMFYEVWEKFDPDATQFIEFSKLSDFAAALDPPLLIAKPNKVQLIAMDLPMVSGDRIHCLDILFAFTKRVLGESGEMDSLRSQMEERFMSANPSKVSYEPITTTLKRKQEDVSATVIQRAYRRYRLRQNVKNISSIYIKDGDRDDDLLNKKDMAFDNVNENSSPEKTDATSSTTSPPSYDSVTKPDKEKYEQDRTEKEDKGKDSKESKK

As for Phlotoxin-1, the “effect on inflammatory (CFA) thermal hyperalgesia, Hargreaves test” value in [1] is on record as “much lesser effects”. In addition, on Nav1.7 [2], the “selective affinity for Nav1.7 compared to other expressed sodium channels” value is given as “sub-micromolar”. The “inhibition of functional Nav1.7 voltage-gated channel activity” value at Nav1.7 [3] is on record as “completely inhibits”. In [4], the “analgesia in the Hargreaves test (paw-withdrawal latency)” value was “no analgesia”.
Take `C=CCN1CC[C@]23c4c5ccc(O)c4O[C@H]2C(=O)CC[C@@]3(O)[C@H]1C5` [naloxone]: the “effect on the analgesia of Nav1.7 null mutant mice, Hargreaves test” value with Nav1.7 null mutant mice is recorded as “partially reverses”. Further, the “effect on pain thresholds, Hargreaves test” value in the assay on normal mice is recorded as “does not alter pain thresholds”. The “trials in which pinprick stimuli were reported "surprisingly uncomfortable"” value in [5] came out at 66%. Further, in [5] (forearm radiant heat), the “reduction of pinprick detection thresholds relative to saline” value stood at 1.7 °C and the “reduction of warmth detection thresholds relative to saline” value turned out to be 7 °C. Moreover, the “perceived intensity rating of tonic stimuli (visual analog scale) versus baseline and saline” value in the assay on Nav1.7 null mutant human [6] (42, 45 and 48° C. for 20 sec, naloxone) was “rated higher”. In addition, in the assay with Nav1.7 null mutant human [6] (naloxone), the “EEG alpha and beta power during tonic radiant heat” value is on record as “reduced”; the “EEG low and high gamma induced oscillations relative to baseline and saline” value is recorded as “enhancement”. The “intensity ratings of tonic radiant heat on visual analogue scale (Example 14)” value in the assay with Nav1.7 null mutant human [6] (tonic radiant heat over 25 seconds, Nav1.7 null human) is on record as “strongly increased”. In addition, the “probability of detecting 9-ms radiant heat pulses” value with Nav1.7 null mutant human [7] (bolus of 6 mg naloxone followed by infusion at 0.1 mg/minute, Nav1.7 null mutant) is recorded as 80%. The “detection rate of laser pulses” value in the assay on Nav1.7 null mutant human [7] (fluency 0.6 j/mm2, forearm, naloxone, none perceived at baseline and saline) came to 80%. Further, the “detected stimuli felt as pinprick” value in the assay on Nav1.7 null mutant human [7] (naloxone) is listed as 37.5%. In addition, in the assay on Nav1.7 null mutant human [7] (setting [10]), the “perceived intensity rating of laser pulses, mean” value worked out at 6.1 and the “perceived intensity rating of laser pulses, range” value was 0.5-15. Further, the tactile sensitivity entry in assay [8] is “remained unchanged”. The “sensitisation to noxious stimuli (phasic and tonic radiant heat)” value in the assay on healthy human controls is recorded as “no effect”.
For μ-SLPTX-Ssm6a, the IC50 on Nav1.7 [9] is about 25 nM.
